Row | melting point [°C] | Compound
1 | 91 to 94 | CC(C)OP(=O)(CCCCC1(C(=O)NCC(F)(F)F)c2ccccc2-c2ccccc21)OC(C)C
2 | 195 to 196 | CCOC(=O)CCC1(NC(=O)c2ccc3ccccc3c2)C(=O)N(c2ccccc2)c2cc(OCC)ccc21 (stereo not drawn)
3 | 240 to 242 | Cc1cc(C2(C(F)(F)F)CC(C(F)(F)F)=NO2)ccc1NC(=O)c1cccc(I)c1C(=O)NC(C)C (stereo not drawn)
4 | 138 to 142 | NNC(=O)C(F)(F)C(F)(F)C(F)(F)F
5 | 183 | Cc1nc2c3c(c(C(=O)N(C)C)cc2[nH]1)CCC1(Cc2ccccc2C1)N3
6 | 125 to 138 | O=C(/C=C/c1ccc(Cl)cc1)N1CCN(C(=O)c2cc(C(F)(F)F)cc(C(F)(F)F)c2)[C@H](Cc2c[nH]c3ccccc23)C1
7 | 180 to 181 | COc1cc(Nc2nccc(-c3sc(CO)nc3C)n2)ccc1N1CCOCC1
8 | 45 to 46.5 | O=CC=C(c1ccccc1)c1ccccc1
9 | 161 to 163 | COc1cc(C=O)c2oc(-c3ccc(OC)c(F)c3)cc2c1
10 | 142 | FC(F)(F)c1cc(Nc2nnc(CCCc3cccnc3)c3ccccc23)ccc1Cl
11 | 242 to 244 | O=C1CCC(c2ccc(C(=O)Nc3ccccc3F)cc2)=NN1
12 | 99 to 101 | CCOC(=O)c1cc(C=Cc2ccc(O)c(OC)c2)n[nH]1
13 | 140 to 141 | C[C@@H](Cn1ncc2ccc3oc(C(=O)OCc4ccccc4)cc3c21)NC(=O)OCc1ccccc1
14 | 83 to 85 | CC(=O)OCC1OC(n2cc(C(I)=CI)c(=O)[nH]c2=O)C(OC(C)=O)C1OC(C)=O (stereo not drawn)
15 | 243 to 244 | O=C(Nc1ccc(N2CCC2)nc1)c1cc2cc(C(F)(F)F)cnc2n1Cc1cccc(F)c1
16 | 195 to 196 | CNC(=O)c1cc2c(Oc3ccc(CO)cc3)cncc2s1
17 | 119 to 123 | CC(C)(Cl)Cn1ncc(OCc2ccc(I)nc2)c(Cl)c1=O
18 | 110 to 112 | CCOC(=O)Cc1csc(NC(=O)c2ccc(F)cc2)n1
19 | 205 to 206 | O=c1c2cccc3c2n(c(=O)n1CCO)-c1cc(C(F)(F)F)ccc1S3=O (stereo not drawn)
20 | 263 to 266 | CCn1c(=O)c(C(N)=O)c(N)c2ccc(C)nc21
21 | 31.5 to 33 | CCOC(=O)c1c(C(F)(F)F)nc(C(F)(F)Cl)c(C(=O)OC)c1N(CC)CC
22 | 89 to 90 | CC(=O)Oc1c(C)c(C)c2c(c1C)CC(CCI)O2 (racemic)
23 | 210 to 212 | O=S(=O)(NCCO)c1c[nH]c(-c2ccc(Cl)cc2)n1

Row | melting point [°C] | Compound
24 | 243 to 244 | CN(C(=O)CCCOc1ccc2c(c1)CN1CC(=O)NC1=N2)C1CCCCC1
25 | 193 to 194 | CCOC(=O)c1c(C)cc2c(c1C)c(=O)n(-c1ccccc1Cl)c(=O)n2CC(=O)NCCN(CC)CC
26 | > 300 | Cc1sc2[nH]c(=O)c(=O)[nH]c2c1C
27 | 86 to 87 | C=C1CCN([C@H](C)[C@](O)(Cn2cncn2)c2ccc(F)cc2F)CC1
28 | 231 to 232 | CC(Cl)(Cl)C(NC(=O)c1cc(F)cc(F)c1)Nc1c(Nc2cccnc2)c(=O)c1=O (stereo not drawn)
29 | 93 to 95 | CCOP(=O)(CSCCOn1cnc2c(N)ncnc21)OCC
30 | 117 to 119 | CCOCC1OC(n2cnc3c(N)nc(Cl)nc32)C(O)C1O (stereo not drawn)
31 | 140 to 145 | CN(C)CCNc1cc(Cl)nc(-c2ccccc2)n1
32 | 192 to 193 | CCOC(=O)Cc1sc(NC(=O)Nc2ccccc2)nc1-c1ccc(Cl)cc1
33 | 50 | O=C(OCCCl)c1cccc(O)c1
34 | 80 to 85 | CSCON=C(C(=O)O)c1nccc(NC=O)n1
35 | 130 | COC(=O)c1cc2ccc(OC)cc2n1CCN1CCC(NCc2cc3c(cn2)OCCO3)CC1
36 | 345 to 348 | O=C(O)c1ccc2[nH]c3c(c2c1)CC(N1C(=O)c2ccccc2C1=O)CC3 (stereo not drawn)
37 | 176 | COc1c(C)cc(P(c2cc(C)c(OC)c(C)c2)c2cc(C)c(OC)c(C)c2)cc1C
38 | 127 to 128 | CS(=O)(=O)c1ccc(C(Cc2ccc(F)cc2Cl)C(=O)Nc2nc3ccccc3o2)cc1 (stereo not drawn)
39 | 136 to 137 | CN1CCc2c([nH]c(Br)c2Br)C(c2ccccc2)C1 (stereo not drawn)
40 | 153 to 155 | Cc1nc(N2CCC(CC3CC3)C2=O)sc1C(=O)NCc1ccc(F)cc1 (stereo not drawn)
41 | 207 to 210 | Nc1cc(Cl)c(N)c2c1C(=O)c1ccccc1C2=O
42 | 94 to 95 | N#Cc1cnc2ccc(-n3cccc3C=O)cc2c1Nc1cccc(Br)c1
43 | 78 | Cc1ccccc1-c1cc(F)cc2c1NC(CN)CO2 (stereo not drawn)
44 | 83 to 86 | CCOC(=O)c1ccc(S(C)(=O)=O)c(-c2cc(C)no2)c1C
45 | 85 | CCc1cc(OC)cc2nc(-c3ccc(OC)cc3)oc12
46 | 212 to 216 | CCOC(=O)c1cn(C2CC2)c2c(CO)c(N3CCOCC3)c(F)cc2c1=O

Row | melting point [°C] | Compound
47 | 98 | O=[N+]([O-])c1ccc(OC2CCCC2)cc1NC1CCCCC1
48 | 112 | COC[C@H]1CN(c2ccc(OCCC3(C(F)(F)F)OCCO3)cc2)C(=O)O1
49 | 150 to 152 | COCCc1nc2c(N)nc3c(c2n1CCCNS(C)(=O)=O)CCCC3
50 | 214 to 215 | CCc1noc(-c2cn(-c3cccc(O)c3)cn2)n1
51 | 77 to 79 | Nc1ccnn1-c1cccc(C(F)(F)F)c1
52 | 77 | COCCOn1nnc2ccc(Cn3ccnc3)cc21
53 | 254 to 256 | Cc1c(Cl)cccc1S(=O)(=O)Nc1ccc2c(c1)nc(C)n2-c1ccccc1
54 | 165 to 167 | COC(COC(=O)C1=C(C)NC2=C(C(=O)CNC2)C1c1cccc(Cl)c1)c1ccccc1 (stereo not drawn)
55 | 112 to 114 | O=C(Oc1ccccc1)N1CCN(c2nn(S(=O)(=O)c3ccccc3)c3ccccc23)CC1
56 | 225 to 227 | O=C1N(Cc2cccc(O)c2)c2ccccc2C12COc1cc3c(cc12)CCO3 (stereo not drawn)
57 | 131 to 133 | Nc1c([N+](=O)[O-])cc(Br)c2c1CCN(Cc1ccc(C(F)(F)F)cc1)C2
58 | 160 | CCC(CC)C(O)C(O)C(CC1CCCCC1)NC(=O)C(Cc1c[nH]cn1)NC(=O)C(CC(=O)C(C)(C)C)Cc1ccccc1 (stereo not drawn)
59 | 97 to 98 | CC(c1ccccc1)(c1ccc(OC(=O)CCl)cc1)c1ccc(OC(=O)CCl)cc1
60 | 86 to 88 | CCCCCc1c([N+](=O)[O-])cc([N+](=O)[O-])c2nc(C(F)(F)F)[nH]c12
61 | 127 to 130 | O=C(NCCCCCCOCc1ccc(OCc2ccccc2)cc1)c1cc(-c2cccc(C(F)(F)F)c2)c(O)c(-c2cccc(C(F)(F)F)c2)c1
62 | 55.5 to 56 | COCc1cc(CCCOc2c(Cl)cc(-c3noc(C)n3)cc2Cl)on1
63 | 158 to 160 | CCOC(=O)c1[nH]c2ccc(C)cc2c1Sc1ccc(Cl)cc1
64 | 278 | Cn1cnc2c1c1n[nH]c(=S)n1c(=O)n2Cc1ccccc1
65 | 79 to 80 | COc1ccccc1NC(=O)c1ccncc1
66 | 207 to 210 | CSc1ccc(-c2c(NN)nc(NN)nc2-c2ccccc2)cc1
67 | > 275 | Cc1nn(C)c2nc(N)nc(N)c2c1=O
68 | 235 | O=C(O)CNc1nc(NCc2ccc(NC(=O)c3ccc(F)cc3)cc2)c2ccccc2n1
69 | 132 to 135 | OCCCCOc1ccc2cc(Nc3ccc(O)cc3)ccc2c1

Row | melting point [°C] | Compound
70 | 230 to 233 | O=C1c2ccc(N3CCCCC3)cc2C(=O)c2cc3ccccc3cc21
71 | 146 to 148 | O=[N+]([O-])c1ccc2oc(-c3sccc3CBr)nc2c1
72 | 73 to 75 | COC(=O)c1ccc(CBr)cc1O
73 | 146 to 148 | O=C(CCC(C(=O)O)N1C(=O)c2cccc(NCc3ccco3)c2C1=O)Nc1ccccc1 (stereo not drawn)
74 | > 250 | CCOC(=O)CNC(=O)Nc1ccc2oc3c(OC)ccc(C(=O)Nc4c(Cl)cncc4Cl)c3c2c1
75 | 218 to 219 | N#CN=C(N)Cc1ccc2c(c1)Nc1nccnc1S2
76 | > 239 | COc1ccccc1CN[C@H]1CCCN[C@H]1c1ccsc1 (relative stereo)
77 | 124 to 125 | Oc1cc(Cl)ccc1Oc1ccccc1-c1ncon1
78 | 146 to 149 | COC(=O)NC(C)(C)c1ccc(CS(=O)(=O)c2ccc(C)c(C)c2)cc1
79 | 59 to 60 | C=C(C)C(=O)Oc1ccc(S(=O)(=O)NCCCC)cc1
80 | 93 to 99 | CC(C)C[C@H](O)C(=O)N[C@@H](C)C(=O)N[C@@H]1C(=O)NCCS[C@@H]1c1ccccc1
81 | 243 to 244 | O=C(Nc1ccccc1)OCC1c2ccccc2-c2ccccc21
82 | 120 to 121 | CC(C)(C)c1cc(C(=O)c2ccoc2)cc2c1OCC2(C)C
83 | 133 to 135 | CCOC(=O)C(=CNc1ncnc2ccc(NC(=O)CC(C)(C)C)cc12)C(=O)OCC
84 | 92 | COC(=O)c1c[nH]c(Cl)c1
85 | 202 to 206 | CCOC(=O)c1sc2c(ccc(=O)n2-c2ccccc2)c1Br
86 | 104 to 105 | CCOC(=O)c1c(-c2ccccc2)c(-c2ccc(F)cc2)cn1C(C)C
87 | 164 to 166 | O=C(CCc1cccc([N+](=O)[O-])c1)c1c(O)c2cccnc2n(-c2ccccc2)c1=O
88 | 205 to 208 | CSC1=NC(=O)C(=Cc2nc(C(C)(C)C)c(O)c(C(C)(C)C)n2)S1
89 | 144 to 145 | CCOc1nn(Cc2cccc(OCc3nc(-c4ccccc4)oc3C)n2)cc1CCC(=O)O
90 | 34 to 35 | CNc1ccccc1C(C)=O
91 | 273 to 276 | CCOC(=O)c1c(-c2ccc(OC)c(OC)c2)c2cc(OC)c(OC)cc2[nH]c1=O
92 | 88 to 90 | Nc1cccc(C(=O)NCCCn2ccnc2)c1

Row | Compound | melting point [°C]
93 | CCCC12CCC3C4CCCC=C4CCC3C1CCC2=O (stereo not drawn) | 89 to 90
94 | O=C(NC(C(=O)O)c1ccc[nH]1)OCC(Cl)(Cl)Cl (stereo not drawn) | 111
95 | N#Cc1cccc(CCN2CCN(Cc3ccc(Cl)nc3)C2=N[N+](=O)[O-])c1 | 204 to 206
96 | CC(C(=O)O)c1cccc(NC(=O)NC2N=C(c3ccccc3F)c3ccccc3N(CC(=O)N3CC4CCC(CC4)C3)C2=O)c1 (racemic) | 187 to 204
97 | O=[N+]([O-])c1ccc2c(C3=CCN(CCCOc4cccc5[nH]ccc45)CC3)c[nH]c2c1 | 215 to 225
98 | COC(=N)N1CCC(c2n[nH]c3cc(Cl)ccc23)CC1 | 173 to 175

From a melting point compilation (Tetko et al.; mined from patent text by program, amines drawn as free bases though some values may be those of a salt)
